Source: patent publication US20220389061A1, “IMMUNOMODULATORS” (priority 2019, published 2022)
Read-outs that look alike come from different tables or passages of the source. Starred links: 1 amine or outer side, 2 acyl side, 3 side chain; linkers in the order of their positions; H or OH if unused. Positions of bridges follow the written chain, without caps; N, C: chain ends. Non-standard residues stand in square brackets, D forms with d. Residues, ends and D or L forms follow the SMILES beside them. Groups on a side chain read outwards from the residue. *: point of attachment. Trp(1-CH2COOH) = N[C@@H](Cc1cn(CC(=O)O)c2ccccc12)C(=O)O; Benzoyl(2-(4-MeOPh)) = COc1ccc(-c2ccccc2C(=O)*)cc1; X41 = N=C(NCC[C@H](N[*:1])C(=O)[*:2])c1ccccc1; X40 = N=C(NC[C@H](N[*:1])C(=O)[*:2])c1ccccc1; X65 = CC(C)(C)OC(=O)Nc1ccc(NC(=S)*)cc1; Hyp = O=C(O)[C@@H]1C[C@@H](O)CN1; X19 = CCOC(=O)c1ccc(NC(=S)*)cc1; X3 = S=C(Nc1ccc(Oc2ccccc2)cc1)*; X60 = Cc1cc2cc(NC(=S)*)ccc2o1; NMeNle = CCCC[C@H](NC)C(=O)O; X16 = S=C(Nc1ccc2c(c1)OCO2)*; X20 = O=C(Oc1ccc2ccccc2c1)*; X9 = Fc1ccc(NC(=S)*)c(Cl)c1; 4Abz = Nc1ccc(C(=O)O)cc1; NMeA = CN[C@@H](C)C(=O)O; X71 = c1cc2c(cc1N*)OCCO2; Dab = NCC[C@H](N)C(=O)O; Dap = NC[C@H](N)C(=O)O; X46 = COc1ccc(Cl)cc1N*; CO = O=C([*:1])[*:2]

Molecular target: T1, PD-1/PD-L1 (Homo sapiens, UniProt Q9NZQ7)
T1 construct: TVMV protease site linker (C); made in house; host or cells: HEK293T cells
T1 sequence (Q9NZQ7 18-239): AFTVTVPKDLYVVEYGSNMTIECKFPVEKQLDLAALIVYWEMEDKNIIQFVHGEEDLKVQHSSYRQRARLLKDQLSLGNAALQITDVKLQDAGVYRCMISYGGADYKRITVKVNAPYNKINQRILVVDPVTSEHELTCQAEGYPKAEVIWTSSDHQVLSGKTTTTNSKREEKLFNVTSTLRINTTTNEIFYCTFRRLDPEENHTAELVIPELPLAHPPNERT
Assay: PD-1/PD-L1 Homogenous Time-Resolved Fluorescence (HTRF) binding assay
In short: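 HTRF read-out using europium cryptate anti-Ig (1 nM) and APC anti-His (20 nM) on extracellular-domain fusion proteins in dPBS/0.1% BSA/0.05% Tween-20. Inhibitor first incubated 15 min with 10 nM PD-L1-His, followed by 20 nM PD-1-Ig for another 15 min.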

[1] = PD-L1-His 10 nM pre-incubated with inhibitor, PD-1-Ig 20 nM, read-out: HTRF IC50

Row | Compound | IC50 [1] | IC50
1 | CCCC[C@H]1C(=O)N(C)[C@@H](CCCC)C(=O)N[C@@H](CC(C)C)C(=O)N[C@H](C(=O)NCC(N)=O)CSCC(=O)N[C@@H](Cc2ccc(O)cc2)C(=O)N(C)[C@@H](C)C(=O)N[C@@H](CC(N)=O)C(=O)N2CCC[C@H]2C(=O)N[C@@H](CNC(=O)Nc2ccc3c(c2)OCCO3)C(=O)N[C@@H](CC(C)C)C(=O)N2C[C@H](O)C[C@H]2C(=O)N[C@@H](Cc2c[nH]c3ccccc23)C(=O)N[C@@H](CCN)C(=O)N[C@@H](Cc2cn(CC(=O)O)c3ccccc23)C(=O)N1C [Example 3042] ({CH2CO}-Y[NMeA]NP[Dap]([CO-X71])L[Hyp]W[Dab][Trp(1-CH2COOH)][NMeNle][NMeNle]LCG-NH2; thioether N-14) | 2.5 nM | 
2 | CCCC[C@H]1C(=O)N(C)[C@@H](CCCC)C(=O)N[C@@H](CC(C)C)C(=O)N[C@H](C(=O)NCC(N)=O)CSCC(=O)N[C@@H](Cc2ccc(O)cc2)C(=O)N(C)[C@@H](C)C(=O)N[C@@H](CC(N)=O)C(=O)N2CCC[C@H]2C(=O)N[C@@H](CNC(=S)Nc2ccc3oc(C)cc3c2)C(=O)N[C@@H](CC(C)C)C(=O)N2C[C@H](O)C[C@H]2C(=O)N[C@@H](Cc2c[nH]c3ccccc23)C(=O)N[C@@H](CCNC(=S)Nc2ccc3oc(C)cc3c2)C(=O)N[C@@H](Cc2cn(CC(=O)O)c3ccccc23)C(=O)N1C [Example 3072] ({CH2CO}-Y[NMeA]NP[Dap](X60)L[Hyp]W[Dab](X60)[Trp(1-CH2COOH)][NMeNle][NMeNle]LCG-NH2; thioether N-14) | 1.5 nM | 
3 | CCCC[C@H]1C(=O)N(C)[C@@H](CCCC)C(=O)N[C@@H](CC(C)C)C(=O)N[C@H](C(=O)NCC(N)=O)CSCC(=O)N[C@@H](Cc2ccc(O)cc2)C(=O)N(C)[C@@H](C)C(=O)N[C@@H](CC(N)=O)C(=O)N2CCC[C@H]2C(=O)N[C@@H](CNC(=S)Nc2ccc(Oc3ccccc3)cc2)C(=O)N[C@@H](CC(C)C)C(=O)N2C[C@H](O)C[C@H]2C(=O)N[C@@H](Cc2c[nH]c3ccccc23)C(=O)N[C@@H](CCNC(=S)Nc2ccc(Oc3ccccc3)cc2)C(=O)N[C@@H](Cc2cn(CC(=O)O)c3ccccc23)C(=O)N1C [Example 1080] ({CH2CO}-Y[NMeA]NP[Dap](X3)L[Hyp]W[Dab](X3)[Trp(1-CH2COOH)][NMeNle][NMeNle]LCG-NH2; thioether N-14) | 3.4 nM | 
4 | CCCC[C@H]1C(=O)N(C)[C@@H](CCCC)C(=O)N[C@@H](CC(C)C)C(=O)N[C@H](C(=O)NCC(N)=O)CSCC(=O)N[C@@H](Cc2ccc(O)cc2)C(=O)N(C)[C@@H](C)C(=O)N[C@@H](CC(N)=O)C(=O)N2CCC[C@H]2C(=O)N[C@@H](CNC(=S)Nc2ccc(NC(=O)OC(C)(C)C)cc2)C(=O)N[C@@H](CC(C)C)C(=O)N2C[C@H](O)C[C@H]2C(=O)N[C@@H](Cc2c[nH]c3ccccc23)C(=O)N[C@@H](CCNC(=S)Nc2ccc(NC(=O)OC(C)(C)C)cc2)C(=O)N[C@@H](Cc2cn(CC(=O)O)c3ccccc23)C(=O)N1C [Example 1041] ({CH2CO}-Y[NMeA]NP[Dap](X65)L[Hyp]W[Dab](X65)[Trp(1-CH2COOH)][NMeNle][NMeNle]LCG-NH2; thioether N-14) | 2.3 nM | 
5 | CCCC[C@H]1C(=O)N(C)[C@@H](CCCC)C(=O)N[C@@H](CC(C)C)C(=O)N[C@H](C(=O)NCC(N)=O)CSCC(=O)N[C@@H](Cc2ccc(O)cc2)C(=O)N(C)[C@@H](C)C(=O)N[C@@H](CC(N)=O)C(=O)N2CCC[C@H]2C(=O)N[C@@H](CNC(=S)Nc2ccc3c(c2)OCO3)C(=O)N[C@@H](CC(C)C)C(=O)N2C[C@H](O)C[C@H]2C(=O)N[C@@H](Cc2c[nH]c3ccccc23)C(=O)N[C@@H](CCNC(=S)Nc2ccc3c(c2)OCO3)C(=O)N[C@@H](Cc2cn(CC(=O)O)c3ccccc23)C(=O)N1C [Example 3050] ({CH2CO}-Y[NMeA]NP[Dap](X16)L[Hyp]W[Dab](X16)[Trp(1-CH2COOH)][NMeNle][NMeNle]LCG-NH2; thioether N-14) | 2.7 nM | 
6 | CCCC[C@H]1C(=O)N(C)[C@@H](CCCC)C(=O)N[C@@H](CC(C)C)C(=O)N[C@H](C(=O)NCC(N)=O)CSCC(=O)N[C@@H](Cc2ccc(O)cc2)C(=O)N(C)[C@@H](C)C(=O)N[C@@H](CC(N)=O)C(=O)N2CCC[C@H]2C(=O)N[C@@H](CNC(=S)Nc2ccc(C(=O)OCC)cc2)C(=O)N[C@@H](CC(C)C)C(=O)N2C[C@H](O)C[C@H]2C(=O)N[C@@H](Cc2c[nH]c3ccccc23)C(=O)N[C@@H](CCNC(=S)Nc2ccc(C(=O)OCC)cc2)C(=O)N[C@@H](Cc2cn(CC(=O)O)c3ccccc23)C(=O)N1C [Example 1043] ({CH2CO}-Y[NMeA]NP[Dap](X19)L[Hyp]W[Dab](X19)[Trp(1-CH2COOH)][NMeNle][NMeNle]LCG-NH2; thioether N-14) | 0.6 nM | 
7 | CCCC[C@H]1C(=O)N(C)[C@@H](CCCC)C(=O)N[C@@H](CC(C)C)C(=O)N[C@H](C(=O)NCC(N)=O)CSCC(=O)N[C@@H](Cc2ccc(O)cc2)C(=O)N(C)[C@@H](C)C(=O)N[C@@H](CC(N)=O)C(=O)N2CCC[C@H]2C(=O)N[C@@H](CNC(=O)Nc2ccc(C(=O)OCC)cc2)C(=O)N[C@@H](CC(C)C)C(=O)N2C[C@H](O)C[C@H]2C(=O)N[C@@H](Cc2c[nH]c3ccccc23)C(=O)N[C@@H](CCN)C(=O)N[C@@H](Cc2cn(CC(=O)O)c3ccccc23)C(=O)N1C [Example 1069] ({CH2CO}-Y[NMeA]NP[Dap]([CO-4Abz-OEt])L[Hyp]W[Dab][Trp(1-CH2COOH)][NMeNle][NMeNle]LCG-NH2; thioether N-14) | 0.4 nM | 
8 | CCCC[C@H]1C(=O)N(C)[C@@H](CCCC)C(=O)N[C@@H](CC(C)C)C(=O)N[C@H](C(=O)NCC(N)=O)CSCC(=O)N[C@@H](Cc2ccc(O)cc2)C(=O)N(C)[C@@H](C)C(=O)N[C@@H](CC(N)=O)C(=O)N2CCC[C@H]2C(=O)N[C@@H](CNC(=O)c2ccccc2-c2ccc(OC)cc2)C(=O)N[C@@H](CC(C)C)C(=O)N2C[C@H](O)C[C@H]2C(=O)N[C@@H](Cc2c[nH]c3ccccc23)C(=O)N[C@@H](CCNC(=O)c2ccccc2-c2ccc(OC)cc2)C(=O)N[C@@H](Cc2cn(CC(=O)O)c3ccccc23)C(=O)N1C [Example 1095] ({CH2CO}-Y[NMeA]NP[Dap](Benzoyl(2-(4-MeOPh)))L[Hyp]W[Dab](Benzoyl(2-(4-MeOPh)))[Trp(1-CH2COOH)][NMeNle][NMeNle]LCG-NH2; thioether N-14) | 5.7 nM | 
9 | CCCC[C@H]1C(=O)N(C)[C@@H](CCCC)C(=O)N[C@@H](CC(C)C)C(=O)N[C@H](C(=O)NCC(N)=O)CSCC(=O)N[C@@H](Cc2ccc(O)cc2)C(=O)N(C)[C@@H](C)C(=O)N[C@@H](CC(N)=O)C(=O)N2CCC[C@H]2C(=O)N[C@@H](CNC(=O)Oc2ccc3ccccc3c2)C(=O)N[C@@H](CC(C)C)C(=O)N2C[C@H](O)C[C@H]2C(=O)N[C@@H](Cc2c[nH]c3ccccc23)C(=O)N[C@@H](CCNC(=O)Oc2ccc3ccccc3c2)C(=O)N[C@@H](Cc2cn(CC(=O)O)c3ccccc23)C(=O)N1C [Example 3037] ({CH2CO}-Y[NMeA]NP[Dap](X20)L[Hyp]W[Dab](X20)[Trp(1-CH2COOH)][NMeNle][NMeNle]LCG-NH2; thioether N-14) |  | 5 nM
10 | CCCC[C@H]1C(=O)N(C)[C@@H](CCCC)C(=O)N[C@@H](CC(C)C)C(=O)N[C@H](C(=O)NCC(N)=O)CSCC(=O)N[C@@H](Cc2ccc(O)cc2)C(=O)N(C)[C@@H](C)C(=O)N[C@@H](CC(N)=O)C(=O)N2CCC[C@H]2C(=O)N[C@@H](CNC(=S)Nc2ccc(F)cc2Cl)C(=O)N[C@@H](CC(C)C)C(=O)N2C[C@H](O)C[C@H]2C(=O)N[C@@H](Cc2c[nH]c3ccccc23)C(=O)N[C@@H](CCN)C(=O)N[C@@H](Cc2cn(CC(=O)O)c3ccccc23)C(=O)N1C [Example 1030] ({CH2CO}-Y[NMeA]NP[Dap](X9)L[Hyp]W[Dab][Trp(1-CH2COOH)][NMeNle][NMeNle]LCG-NH2; thioether N-14) | 2.6 nM | 
11 | CCCC[C@H]1C(=O)N(C)[C@@H](CCCC)C(=O)N[C@@H](CC(C)C)C(=O)N[C@H](C(=O)NCC(N)=O)CSCC(=O)N[C@@H](Cc2ccc(O)cc2)C(=O)N(C)[C@@H](C)C(=O)N[C@@H](CC(N)=O)C(=O)N2CCC[C@H]2C(=O)N[C@@H](CNC(=O)c2ccccc2-c2ccc(OC)cc2)C(=O)N[C@@H](CC(C)C)C(=O)N2C[C@H](O)C[C@H]2C(=O)N[C@@H](Cc2c[nH]c3ccccc23)C(=O)N[C@@H](CCN)C(=O)N[C@@H](Cc2cn(CC(=O)O)c3ccccc23)C(=O)N1C [Example 1063] ({CH2CO}-Y[NMeA]NP[Dap](Benzoyl(2-(4-MeOPh)))L[Hyp]W[Dab][Trp(1-CH2COOH)][NMeNle][NMeNle]LCG-NH2; thioether N-14) | 3.7 nM | 
12 | CCCC[C@H]1C(=O)N(C)[C@@H](CCCC)C(=O)N[C@@H](CC(C)C)C(=O)N[C@H](C(=O)NCC(N)=O)CSCC(=O)N[C@@H](Cc2ccc(O)cc2)C(=O)N(C)[C@@H](C)C(=O)N[C@@H](CC(N)=O)C(=O)N2CCC[C@H]2C(=O)N[C@@H](CNC(=O)Nc2cc(Cl)ccc2OC)C(=O)N[C@@H](CC(C)C)C(=O)N2C[C@H](O)C[C@H]2C(=O)N[C@@H](Cc2c[nH]c3ccccc23)C(=O)N[C@@H](CCN)C(=O)N[C@@H](Cc2cn(CC(=O)O)c3ccccc23)C(=O)N1C [Example 1074] ({CH2CO}-Y[NMeA]NP[Dap]([CO-X46])L[Hyp]W[Dab][Trp(1-CH2COOH)][NMeNle][NMeNle]LCG-NH2; thioether N-14) | 6.3 nM | 
13 | CCCC[C@H]1C(=O)N(C)[C@@H](CCCC)C(=O)N[C@@H](CC(C)C)C(=O)N[C@H](C(=O)NCC(N)=O)CSCC(=O)N[C@@H](Cc2ccc(O)cc2)C(=O)N(C)[C@@H](C)C(=O)N[C@@H](CC(N)=O)C(=O)N2CCC[C@H]2C(=O)N[C@@H](CNC(=N)c2ccccc2)C(=O)N[C@@H](CC(C)C)C(=O)N2C[C@H](O)C[C@H]2C(=O)N[C@@H](Cc2c[nH]c3ccccc23)C(=O)N[C@@H](CCNC(=N)c2ccccc2)C(=O)N[C@@H](Cc2cn(CC(=O)O)c3ccccc23)C(=O)N1C [Example 1019] ({CH2CO}-Y[NMeA]NP[X40]L[Hyp]W[X41][Trp(1-CH2COOH)][NMeNle][NMeNle]LCG-NH2; thioether N-14) | 3.4 nM | 
